Source: US20110008394A1, “ACTIVE SUBSTANCES THAT INCREASE THE ACTIVATION THRESHOLD OF IMMUNE CELLS” (BASF Beauty Care Solutions France S.A.S., priority 2008, published 2011)

Columns and labels:
[1] = tested on: CD86 on LCs/DDCs stimulated with LPS and TNFα; assay: Response to a danger signal: LCs/DDCs simultaneously treated with active principles and stimulated with LPS + TNFα, CD86 by flow cytometry; assay type: cell-based, human; conditions: for RESIDUAL EXPRESSION OF CD86 AFTER TREATMENT: active principle alone, no stimulation; for RESIDUAL EXPRESSION OF CD86 AFTER TREATMENT / RESIDUAL EXPRESSION OF CD86 AFTER TREATMENT + STIMULATION: untreated unstimulated control = 100%; for RESPONSE CAPACITY: capacity for response to a danger signal, proportional to residual CD86 after treatment + stimulation (stimulation alone 143%); for RESIDUAL EXPRESSION OF CD86 AFTER TREATMENT + STIMULATION: simultaneous active principle and LPS 50 μg/mL + TNFα 10 μg/mL
Experimental: Evaluation of the immunorepressive potential of the active principles also requires a study of the capacity of the LCs/DDCs to respond to a danger signal, for example a bacterial infection, when they are treated with the said active principles. Specifically, we checked that the LCs/DDCs that are simultaneously treated with the active principles and activated by a danger signal are still competent in their function of recognition of danger signals. To do this, we checked that the LDs/DDCs simultaneously treated with the active principles and stimulated with LPS and TNFα are capable of overexpressing the co-stimulation molecule CD86 after this stimulation.
(§1) The flow cytometry study proceeds in the following manner:
(§2) 1/ The immature LCs/DDCs are generated as described in Example 1 and step 3.
2/ The cells are inoculated in P24-well plates, at a rate of 400 000 cells per cm^2, and in the culture medium described in Example 3. A mixture of LPS (at 50 μg/mL advantageously) and of TNFα (at 10 μg/mL advantageously) is added to the said culture medium. Simultaneously, the cells are treated with the active principles as described in Example 3.
3/ The cells that have been simultaneously treated with the active principles and stimulated with LPS and TNFα are analysed by flow cytometry, as described in Example 6, to quantify the residual expression of the molecule CD86 after “treatment+stimulation”.
The results are expressed in the following manner: the control not treated with the active agent and not stimulated with LPS+TNFα is referenced at 100% expression of the molecule CD86, and the tests are expressed as the residual expression of the molecule CD86 after “treatment”, after “treatment+stimulation” and “stimulation”. We also calculated the level of capacity for response to a danger signal, which is proportional to the residual expression of CD86 after treatment+stimulation.

[2] = tested on: CD86 on immature LCs/DDCs; assay: Protein expression of CD86 on treated immature LCs/DDCs, flow cytometry; assay type: cell-based, human; conditions: for RESIDUAL EXPRESSION OF CD86: protein, untreated control = 100%; for LEVEL OF IMMUNOREPRESSION: inversely proportional to residual CD86 protein expression, closer to 1 = stronger
Experimental: The study of the immunorepressive properties of the cosmetic active principles by flow cytometry proceeds in the following manner:
as §2
2/ The cells are inoculated in P24-well plates, at a rate of 400 000 cells per cm^2, and in the culture medium described in Example 3.
4/ The cells are then incubated for 30 minutes with an anti-CD86 monoclonal antibody coupled to a fluorochrome, such as phycoerythrin (advantageously 10 μl of anti-CD86 antibody/well). The negative marking control corresponds to the IgG1 control isotype. After this marking step, the cells are rinsed with the said marking buffer, and then analysed by flow cytometry.
The level of immunorepression, which is inversely proportional to the residual expression of CD86, was also calculated.

[3] = tested on: CD86 on LCs/DDCs stimulated with LPS and TNFα; assay: Response to a danger signal: LCs/DDCs pretreated with active principles, then stimulated with LPS + TNFα without them, CD86 by flow cytometry; assay type: cell-based, human; conditions: for RESPONSE CAPACITY: capacity for response to a danger signal, proportional to residual CD86 after pretreatment + stimulation (stimulation alone 143%); for RESIDUAL EXPRESSION OF CD86 AFTER PRETREATMENT + STIMULATION: pretreated, then recultured 48 hours without active principle with LPS 50 μg/mL + TNFα 10 μg/mL, untreated unstimulated control = 100%
From the text: As in Example 8, we checked that the LCs/DDCs are capable of responding to a danger signal, for example a bacterial infection, when they have been treated beforehand with the active principles and when they are no longer being treated. To do this, we checked that the LCs/DDCs treated with the said active principles, and then stimulated with LPS and TNFα (in the absence of the active principles), are capable of overexpressing the co-stimulation molecule CD86 after this stimulation.
as §1, §2
(§3) 2/ The cells are inoculated in P24-well plates, at a rate of 400 000 cells per cm^2, and in the culture medium described in Example 3. The treatment of the cells with the active principles is described in Example 3.
3/ The cells treated with the active principles are then recultured, without the active principles and in the culture medium described in Example 3, for a further 48 hours. A mixture of LPS (at 50 μg/mL advantageously) and of TNFα (at 10 μg/mL advantageously) is added to the said culture medium. The cells are then analysed by flow cytometry, as described in Example 6, to quantify the residual expression of the molecule CD86 after “pretreatment+stimulation”.
The results are expressed in the following manner: the control not treated with the active agent and not stimulated with LPS and TNFα is referenced at 100% expression of the molecule CD86, and the tests are expressed as the residual expression of the molecule CD86 after “stimulation” and after “pretreatment+stimulation”. We also calculated the level of capacity for response to a danger signal, which is proportional to the residual expression of CD86 after pretreatment+stimulation.

immature LCs/DDCs = assay: Cell viability (cytotoxicity) test, 7-AAD dye, flow cytometry; assay type: cell-based; conditions: 24 hour treatment
Experimental: The active principles have a cytotoxic effect when the cell viability is less than 75% after treatment with the said active agents.
The LCs/DDCs, as described in Example 1 and step 3, are inoculated into P96-well plates, at a rate of 200 000 cells/well, and in the culture medium described in Example 3. The treatment of the cells with the active principles is described in Example 3.
After treatment with the said active principles, the cells are incubated with 5 μl of dye 7-AAD (7-aminoactinomycin D) per well. After incubation for 5 minutes, the cells are analysed by flow cytometry.
The cell viability is expressed as a percentage of viable cells or negative 7-AAD, the dye not penetrating the membranes that are impermeable. This analysis technique also makes it possible to visualize the cells positively marked with 7-AAD, i.e. the cells that have undergone a cytotoxic effect via the active agent.
The negative controls are either the culture medium alone, or the culture medium containing the solvent used during the process for extracting the extracts tested at the concentration equivalent to that of the active agents tested. The reference positive control used in order to induce a mortality of the LCs/DDCs is camptothecin at a concentration of 4 μM final.

[4] = tested on: messenger RNAs coding for CD86 in immature LCs/DDCs; assay: Expression of messenger RNAs coding for CD86 in treated immature LCs/DDCs, quantitative RT-PCR; assay type: cell-based, human; conditions: 10^-7M, 24 hour treatment; for RESIDUAL EXPRESSION OF CD86: messenger RNA relative to actin, untreated control = 100%; for LEVEL OF IMMUNOREPRESSION: from CD86 messenger RNA, closer to 1 = stronger
From the text: Quantitative RT-PCR makes it possible to quantify the expression of the messenger RNAs coding for the protein CD86 in the LCs/DDCs treated or not treated with the said active agents.
The study of the immunorepressive properties of the cosmetic active principles by quantitative RT-PCR proceeds in the following manner:
as §2, §3
3/ After treatment with the active principles, the cells are recovered and stored, for example by dry-freezing at −80° C. after rinsing with pH 7.4 phosphate buffer.
4/ The total RNA of the cells is extracted, for example using a 96-well extraction kit on silica columns, and assayed on e96-well spectrophotometer at 260 nm (purity indicator: assay of the proteins at 280 nm). The RNAs are diluted, for example, to 5 ng/μl.
5/ The […] RT-PCR in step 1 is performed, for example, on 50 ng of initial RNA on a 96-well plate, on the genes for actin and for the molecule CD86. The specific primers for each gene are specified in Table 7 below and are used, for example, at 0.5 μM.
The amplification parameters were advantageously the following: the real-time RT-PCR technique is performed with the Quanti Tect SYBR Green RT-PCR kit (Qiagen, France) on the wells containing the messenger RNA, in an Opticon thermocycler, which performs the amplification cycles. The reverse transcription (RT) is performed for 30 minutes at 50° C., followed by 15 minutes at 95° C. to inhibit the reverse transcriptase, to activate the polymerase and to denature the complementary DNA (cDNA) obtained. 50 cycles of chain polymerization (PCR) are performed (15 seconds at 95° C., 30 seconds at 60° C., 30 seconds at 72° C.). At the end of each cycle, the fluorescence, which is proportional to the number of amplified fragments, is read. The level of expression is defined by the ratio of expression of each gene relative to actin.
The results are expressed in the following manner: the untreated control is referenced at 100% expression of the messenger RNAs coding for the molecule CD86, and the tests are expressed as the level of expression of the messenger RNAs coding for CD86 as a percentage of variation relative to those obtained for the negative control.

[5] = 5 × 1^0^-^7M, dose/effect study
[6] = 10^-7M, % viable (7-AAD negative) cells

Row | Compound | RESIDUAL EXPRESSION OF CD86 AFTER TREATMENT [1] | RESPONSE CAPACITY [1] | RESIDUAL EXPRESSION OF CD86 AFTER TREATMENT + STIMULATION [1] | RESIDUAL EXPRESSION OF CD86 ([2]; 10^-8M, 24 hour treatment) | LEVEL OF IMMUNOREPRESSION ([2]; 10^-8M, 24 hour treatment) | RESPONSE CAPACITY [3] | RESIDUAL EXPRESSION OF CD86 AFTER PRETREATMENT + STIMULATION [3] | RESIDUAL EXPRESSION OF CD86 [2, 5] | RESIDUAL EXPRESSION OF CD86 ([2]; 5 × 10^-8M, dose/effect study) | RESIDUAL EXPRESSION OF CD86 ([2]; 10^-6M, dose/effect study) | RESIDUAL EXPRESSION OF CD86 ([2]; 10^-7M, 24 hour treatment) | LEVEL OF IMMUNOREPRESSION ([2]; 10^-7M, 24 hour treatment) | CYTOTOXIC EFFECT (immature LCs/DDCs; 10^-7M) | CELL VIABILITY (immature LCs/DDCs; [6]) | RESIDUAL EXPRESSION OF CD86 [4] | LEVEL OF IMMUNOREPRESSION [4] | CELL VIABILITY (immature LCs/DDCs; 3 μm, positive control) | CYTOTOXIC EFFECT (immature LCs/DDCs; 3 μm, positive control)
1 | C[C@@H]1C[C@H]2[C@@H]3CCC4=CC(=O)C=C[C@]4(C)[C@@]3(F)[C@@H](O)C[C@]2(C)[C@@]1(O)C(=O)CO [Dexamethasone, reference compound] | 50% | 0.52 | 75% | 50% | 0.5 | 0.91 | 130% | – | – | – | – | – | – | – | – | – | – | –
2 | COc1cc2c(cc1OC)-c1cc3cc(OC)c(OC)cc3c(=O)n1CC2 [8-Oxopseudopalmatine] | 81% | 0.85 | 121% | – | – | 0.89 | 127% | 92% | 100% | 85% | 81% | 0.14 | NO (The active principles have a cytotoxic effect when the cell viability is less than 75% after treatment with the said active agents) | 94% | 59% | 0.41 | – | –
3 | Foliosidine acetonide | 85% | 0.81 | 116% | – | – | 0.84 | 120% | 80% | 85% | 83% | 85% | 0.17 | NO (The active principles have a cytotoxic effect when the cell viability is less than 75% after treatment with the said active agents) | >95% | 91% | 0.09 | – | –
4 | CC[C@@]1(O)C(=O)OCc2c1cc1n(c2=O)Cc2cc3ccccc3nc2-1 [Camptothecin, reference compound] | – | – | – | – | – | – | – | – | – | – | – | – | – | – | – | – | 35% | YES (The active principles have a cytotoxic effect when the cell viability is less than 75% after treatment with the said active agents)
5 | O=C1C=C2C=C[C@@H]3C[C@@]2(O1)[C@H]1CCCCN31 [Securinine] | 83% | 0.98 | 140% | – | – | 0.88 | 126% | 100% | 90% | 100% | 83% | 0.10 | NO (The active principles have a cytotoxic effect when the cell viability is less than 75% after treatment with the said active agents) | 94% | 74% | 0.26 | – | –
